For one assay, the system named is astrocyte. The assay is described as follows: N-AS generation in primary cultured cells (LC-MS/MS). The class given is cell-based, C57BL/6 mice. Also on record: dose or concentration left out as unconfirmed. Conditions: Ab, replicates. Here is the method: (§1) Reactions were quenched by adding equal volume of cold methanol. A 100 μl aliquot of the reaction mixture was mixed with 30 μl of distilled water containing 5 ng ml^−1 of furosemide (internal standard) for 1 min and vigorously mixed with […] of ethyl acetate for 20 min. After centrifugation at 16,000×g for 10 min, the mixtures were kept for 2 h for freezing aqueous phase. The upper ethyl acetate layer was transferred to a clean tube and evaporated to dryness under a gentle stream of nitrogen. Then, the dried extract was reconstituted in 100 µl of mobile phase and 10 µl aliquot of the solution was injected into an Agilent 6470 Triple Quad LC–MS/MS system (Agilent, Wilmington, DE) coupled with an Agilent 1260 HPLC system. […] Quantification was carried out using multiple reaction monitoring (MRM) at m/z 340.3→263.3 for N-AS and m/z 328.9→284.8 for furosemide (internal standard) in negative ionization mode and collision energy of 20 eV. […]
(§2) To confirm the generation and roles of N-AS in neurons, cells from E18 C57BL/6 mice were prepared as previously described. […] Aβ 1–42 (10 μM, 24 h, Invitrogen, 03112) was exposed to neurons and the cells were analyzed for the generation and roles of N-AS. […]

The next assay relates to microglia. The assay is described as above. Also on record: dose or concentration left out as unconfirmed. Conditions: Ab, replicates. Type of assay: cell-based, C57BL/6 mice. On the procedure: as §1, §2

These results are taken from paper PMC7217877, “N-AS-triggered SPMs are direct regulators of microglia in a model of Alzheimer’s disease” (Nature Communications, 2020).

“And” between values parts separate entries of the source, which are not always exact repeats. Equal entries are not always repeated.

On to “Ab: Aβ 1–42 (Invitrogen, 03112) used to induce an AD environment in cells”, for which the “N-AS quantification (Fig 3a)” value with astrocyte was 0.05349 and 0.0246 and 0.05789 and 0.03905 and 0.04125 and 0.04847; with microglia, 1.15 and 1.365 and 1.237 and 1.2575 and 1.301 and 1.247.
